# Data published in ChEMBL document CHEMBL3507680, “University of Dundee, Gates Library screen for HepG2 cell viability”.
# Experiment: Human HepG2 cell viability assay in 384 well format
# Format: toxicity, cell-based
# Set-up: dose 125 nL, time 70.5 hour; concentration not given beside the values
# Settings: HepG2 cells, read-out: Inhibition
row,SMILES,cytotoxicity at 70.5 h [%]
1,CCN1CCN(CCC(=O)NC2CC(c3cccc(Cl)c3)C2)CC1 (centres undefined),3.15
2,Cc1ccc(N2CCCC(NC(=O)CCc3ccccn3)C2=O)cc1 (centres undefined),0.525
3,Cc1ccc(N2CCCC(NC(=O)C(C)(C)C#N)C2=O)cc1 (centres undefined),1.69
4,CC(C)Cn1cnnc1C1CCCN1C(=O)c1cc2ccccn2c1 (centres undefined),14.5
5,CS(=O)(=O)CCC(=O)NC1CC(c2ccccc2Cl)C1 (centres undefined),2.56
6,COc1ccccc1C(=O)N1CCCC1c1nncn1CC(C)C (centres undefined),-0.719
7,Cc1cc(NCC2CC(=O)Nc3ccccc32)nc(C)n1 (centres undefined),-1.89
8,Cc1nc(C)c(C)c(N2CCC(NCCOc3ccccc3)CC2)n1,17.8
9,Cc1ncc2c(n1)CN(C(C(N)=O)c1ccc(F)cc1)CC2 (centres undefined),-2.82
10,COc1ccc(N(C(=O)c2cnc(C)cn2)C(C)C)cc1F,-3.96
11,Cc1cnn(-c2cccc(N3CCN(c4cc(C)nc(C)n4)CC3)n2)c1,15.5
12,N#Cc1cnc2ccccc2c1N1CCN(C(=O)C2CCC2)CC1,-1.5
13,COc1ccc(N(C(=O)c2ccccn2)C(C)C)cc1F,-3.02
14,CNC(=O)CN(C)C(=O)Cc1csc(C(C)C)n1,0.629
15,COc1cccc2c1N(Cc1nc(C3CC3)no1)CCC2,5.14
16,CC(C)C(NC(=O)c1ccccc1F)C(=O)N1CCC2(CC1)OCCO2 (centres undefined),-1.01
17,COc1ccc2c(c1)C(=O)N(C)C1(CCN(CC=C(C)C)CC1)N2,-2.27
18,COCc1ccccc1C(=O)N1CCn2c(nnc2C(C)C)C1,-3.21
19,CC(C)C(O)CNC(=O)Nc1ccc(F)c(Cl)c1 (centres undefined),-0.302
20,COc1ccccc1N1CCCC(Nc2nccnc2C#N)C1 (centres undefined),-6.29
21,N#Cc1nccnc1NC1CCN(c2ccccc2OC(F)F)C1 (centres undefined),-5.2
22,CCn1cc(C(=O)Nc2ccc(C)cc2C(=O)OC)cn1,16
23,CCn1cc(C(=O)Nc2ccc(C)cc2C(=O)NC)cn1,-3.07
24,N#Cc1ccc(NCCC2CCN(CC(F)(F)F)CC2)nc1,2.24

row,SMILES,cytotoxicity at 70.5 h [%]
1,FC(F)c1nnc2ccc(N3CCC4(CCOC4)C3)nn12 (centres undefined),7.83
2,COc1ccccc1S(=O)(=O)CCOC(C)C,-3.27
3,Cc1ccc(OCCN(C)Cc2cscn2)cc1,-2.46
4,COCCc1noc(CN2CCCc3cccc(OC)c32)n1,-4.64
5,COc1cccc(NC(=O)N(CCO)C2CCc3ccccc32)c1 (centres undefined),-0.598
6,Cc1ccc(CCNC(=O)c2cccnc2)o1,30.2
7,Cc1cccc(N(CCC(N)=O)C(=O)c2cnccn2)c1,-12.9
8,CC(=O)N1Cc2ccccc2CC1C(=O)Nc1cc(C)ccn1 (centres undefined),-15.2
9,CC(=O)N1Cc2ccccc2CC1C(=O)Nc1ccc(N(C)C)cn1 (centres undefined),-24.9
10,CC(=O)c1cccc(NC(=O)N(CCO)C2CCc3ccccc32)c1 (centres undefined),26.8
11,O=C(Nc1cn[nH]c1)N(CCCO)C1CCc2ccccc21 (centres undefined),-4.28
12,Cc1cc(CNC(=O)N2CCOC(c3ccccc3Cl)C2)no1 (centres undefined),-7.66
13,CN1CCN(C)C(CNc2c(C#N)cnc3ccc(Cl)cc23)C1 (centres undefined),-8.13
14,Cc1ccc(Br)cc1C(=O)Nc1cc(C(N)=O)n(C)c1,-8.22
15,COCCC(=O)Nc1nc2c(OC)cc(F)cc2s1,-4.65
16,CCC1COCCN1C(=O)NCc1nccn1Cc1ccccc1 (centres undefined),-2.58
17,CC(C)Cn1ccnc1CNC(=O)N1CCCC1CN1CCOCC1 (centres undefined),-4.49
18,CCC1c2ccccc2CCN1CCNS(C)(=O)=O (centres undefined),-4.6
19,CCCC1c2ccccc2CCN1CCS(C)(=O)=O (centres undefined),-3.74
20,CC(Cc1cccc(F)c1)NCc1cnc(N2CCN(C)CC2)nc1 (centres undefined),9.92
21,CC(C)N(Cc1ccccn1)C(=O)CCC(=O)c1ccc(F)cc1F,-14.3
22,CN(C)C(=O)CN1CCN(c2cc(N3CCCC3CO)ncn2)CC1 (centres undefined),-4.56
23,CCc1nc(C2CCCN2Cc2ncc(C)c(OC)c2C)no1 (centres undefined),-5.08
24,CN1CCN(C(=O)c2occc2CN2C(=O)Cc3ccccc32)CC1,16

row,SMILES,cytotoxicity at 70.5 h [%]
1,CCc1noc(CN(CCS(C)(=O)=O)C(C)(C)C)n1,20.2
2,COCCN1CCN(c2ccc(CN(C)C)cn2)CC1,16.1
3,CC(C)OCc1noc(C2CC=CC2)n1,-6.7
4,O=C(c1cc(F)ccc1Br)N1CCN(C(=O)C2CC2)CC1,17.3
5,O=C(c1ccc(=O)[nH]n1)N1CCC(CN2CCOCC2)CC1,-9.25
6,O=C(c1cnccn1)N1CCC(CN2CCOCC2)CC1,-7.46
7,CC(C)c1noc(C(C)S(=O)(=O)CC(=O)N2CCCC2)n1 (centres undefined),17.4
8,Cc1cc(C2CCCN2S(=O)(=O)c2cnn(C)c2)on1 (centres undefined),-6.62
9,O=C(c1ccccc1O)N1CCN(C(=O)C2CCC2)CC1,16.4
10,CCCNC(=O)C1CCN(CC(O)c2ccc(C(F)(F)F)cc2)CC1 (centres undefined),-5.86
11,CC(C(=O)N1CCCCCC1)N1CCN(c2nccs2)CC1 (centres undefined),19.7
12,CC(C(=O)N1CCCCC1)N1CCN(c2nccs2)CC1 (centres undefined),2.12
13,CS(=O)(=O)Cc1ccc(C(=O)Nc2ccc3c(c2)C(=O)NC3)cc1,-6.71
14,CN(C)Cc1ccc(N2CCN(CCOCC(F)(F)F)CC2)nc1,17.7
15,CC(C)OCCN1CCN(c2ccc(Cl)cn2)CC1,-6.76
16,O=C1C(n2nnc(-c3cccs3)n2)CCN1CC(F)(F)F (centres undefined),-7.6
17,CCCOc1ccc(Cl)cc1C(=O)N1CCC(n2cncn2)CC1,17.2
18,COc1ccc(C(NCc2cccc(C#N)c2)C2CC2)cc1 (centres undefined),-2.12
19,COC(=O)c1cccc(C(=O)N2CCN(C(=O)N(C)C)CC2(C)C)c1,16.9
20,CN(C)C(=O)c1ccc(NCCNc2ccc3ccccc3n2)nc1,45.4
21,Cc1cnn(CC(C)NCCc2cccs2)c1 (centres undefined),23.7
22,CS(=O)(=O)NCCc1cccc2cccnc12,25.3
23,Cc1cc(C(C)NC(=O)c2cnc3onc(C)c3c2)c(C)o1 (centres undefined),-5.78
24,COC(=O)c1cccc(S(=O)(=O)NC(=O)CC2CCCC2)c1,22.5

row,SMILES,cytotoxicity at 70.5 h [%]
1,CC(C)COCCCNC(=O)NC(C)c1ccc(-n2cncn2)cc1 (centres undefined),-3.59
2,CC(C)C(Sc1ccccc1)C(=O)N(C)Cc1nnc2n1CCC2 (centres undefined),25.6
3,CN(C)CC1CN(Cc2cc(Cl)cc3cccnc23)CCO1 (centres undefined),-9.09
4,CC(=O)c1cc(C(=O)NC2(c3ccc(Br)cc3)CC2)n(C)c1,-3.42
5,CN(C)CC1CN(Cc2c(Cl)ccc3cccnc23)CCO1 (centres undefined),-4.72
6,Cc1ccc(CN(C)C)cc1NC(=O)C1CC1,-9.96
7,CCc1cnc(N2CCN(Cc3ccncc3)CC2)s1,-3.17
8,COc1ccccc1CNCc1nn(-c2ccccc2)c2c1CCC2,0.28
9,CC(=O)c1ccc(S(=O)(=O)N2CCC(c3n[nH]c(C)n3)CC2)cc1,24.3
10,CS(=O)(=O)NCCCSCc1cccc2cccnc12,-9.28
11,Cc1ccc(C(=O)O)cc1NC(=O)C1CC=CC1,22.9
12,Brc1ccc(C2(CNCc3cc[nH]c3)CCOCC2)cc1,-0.56
13,N#CCCCn1nnnc1Cc1ccc(Br)cc1,-13.9
14,Cc1cc(C)n(C2CN(Cc3ccccn3)C2)n1,-9.82
15,COCc1noc(CCC(=O)c2ccc3c(c2)OCCO3)n1,-19.1
16,Cc1csc(N2CCN(Cc3cnc4c(c3)c(C)nn4C)CC2)n1,-24.9
17,Cc1cc(CN2CCN(Cc3cnc4c(c3)c(C)nn4C)CC2)on1,-6.72
18,Cn1cc(NC(=O)Nc2ccc3c(c2)OCO3)cn1,-8.14
19,O=C(CCn1cncn1)NC1(c2cccc(Br)c2)CCC1,-2.65
20,NS(=O)(=O)CCNC(=O)c1ccc(-c2ccc(F)cc2)cc1F,-6.9
21,O=C(CCCn1cncn1)NC1(c2ccccc2)CCC1,-4.44
22,CC(C)OCCOCc1cccc(NC(=O)NCc2ccccn2)c1,-8.39
23,COc1ccc(-c2nc(CN3CC(n4nc(C)cc4C)C3)no2)cc1,-5.57
24,N#Cc1ccc(CNCC(C(=O)N2CCOCC2)c2ccccc2)cc1 (centres undefined),-3

row,SMILES,cytotoxicity at 70.5 h [%]
1,CN(C(=O)c1cccc(C(=O)NS(C)(=O)=O)c1)c1ccccc1,-8.09
2,CC(C)C1CN(C(=O)c2ccc(N3CCCC3)nc2)CCS1 (centres undefined),-8.6
3,O=C(NC1(c2cccc(F)c2)CCOCC1)c1ccoc1,-6.8
4,CCc1nc(C2CCCN2Cc2nc(CCOC)no2)no1 (centres undefined),-9.31
5,CC(C)C(C(=O)N1CCCN(Cc2cnn(C)c2)CC1)n1cncn1 (centres undefined),-7.59
6,COCCC(=O)N1CCc2cc(Cl)cc(Cl)c2C1,-2.57
7,CN(Cc1cccc(F)c1)C(=O)CN1CCCC1CCc1ccccc1 (centres undefined),-4.07
8,CC(C)OCCOCc1cccc(NC(=O)NCCn2ccnc2)c1,-8.94
9,COc1cccc(CN(C)C(=O)CN2CC(n3nc(C)cc3C)C2)c1,-1.82
10,COc1cccc(CN(C)C(=O)Nc2ccc3c(c2)OCCO3)c1,12.4
11,CCc1ccc(CNC(=O)NC(C)CN2CCOCC2)s1 (centres undefined),6.35
12,CC(CN1CCOCC1)NC(=O)N(C)Cc1ccc(Cl)s1 (centres undefined),-2.73
13,CC(=O)N1CCCN(Cc2csc(-c3ncccn3)n2)CC1,-7.01
14,CCN(CC)C(=O)c1ccc(NC(=O)CNc2ccc(F)cc2Cl)cc1,-6.34
15,Cc1cc(=O)n2ncnc2n1CC(O)c1cc(F)ccc1F (centres undefined),-11.1
16,O=C(Cc1ccccc1F)N1CCN(C(=O)c2ccoc2)CC1,-1.84
17,COc1ccc(-c2nnc(SC(C)C(=O)NCC(C)C)[nH]2)c(OC)c1 (centres undefined),56.9
18,COc1ccc(-c2nnc(SC(C)C(=O)NC3CC3)[nH]2)c(OC)c1 (centres undefined),30.9
19,O=C(c1cc[nH]n1)N1CCCC1C1CCN(Cc2ccccc2)CC1 (centres undefined),-3.3
20,O=C(CCN1CCC(C(=O)c2cc(F)ccc2F)CC1)NC1CC1,-0.804
21,COc1ccc(C(NCc2ccc(C#N)cc2)C2CC2)cc1 (centres undefined),-7.6
22,COc1cccc(-c2c[nH]c(C3CCCN3)n2)c1 (centres undefined),-4.68
23,COc1ccccc1-c1c[nH]c(C2CCCN2)n1 (centres undefined),-7.74
